# Assay results published in publication PMC7613515, “Reading and erasing of the phosphonium analogue of trimethyllysine by epigenetic proteins” (Communications Chemistry, 2022).
# Legend:
# KDM3AJmjC (T515–S1317) = experiment: MALDI-TOF demethylation assay, KDM3AJmjC; type: biochemical; conditions: 1 hr
# From the text: (§1) To investigate whether H3KP9me3 can be demethylated by other human KDM4 subfamily members, recombinant KDM4AJmjC (M1–L359) and KDM4DJmjC (M1–L358) were produced in E. coli following an adaption of literature procedures[38],[39]. […] To test the ability of KDM3 and KDM7 subfamily representatives to demethylate H3KP9me2 or H3KP9me3, KDM3AJmjC (T515–S1317) and KDM7BJmjC (M37–N483) were produced using baculovirus/sf9 and E. coli expression systems, respectively[40],[41]. The synthesis of a histone H3 mimic peptide H3KP9me2 substrate is challenging as the tri-alkylated phosphine group is susceptible to oxidation during synthesis of the protected amino acid and during SPPS requiring oxygen-free conditions. Thus, to investigate if KDM3AJmjC or KDM7BJmjC can catalyse demethylation of H3KP9me2, an appropriate H3KP9me2 substrate was prepared in situ from H3KP9me3 using KDM4EJmjC (2.0 µM), in the presence of KDM3AJmjC (2.0 µM) or KDM7BJmjC (2.0 µM).
# (§2) A Bruker Daltonics MALDI-TOF/TOF AutoflexSpeed machine and Bruker MTP 384 target plates (polished steel BC, Part: 8280781) were used. The machine was controlled using Flex control (v. 3.4 build 135.10) and Compass for flex series (v. 1.4) software. Measurements were in the positive ion mode with the reflectron mode enabled. […] Samples were then analysed by MALDI-TOF. […]
# KDM4AJmjC (M1–L359) = experiment: MALDI-TOF demethylation assay, KDM4AJmjC; type: biochemical, human; conditions: KDM4AJmjC 2.4 µM, peptide 5.0 µM, 1 hr, duplicates
# From the text: as §1, §2
substance,measurement,setting,value
"ARTKQTAR(KPme3)STGGKA [H3KP9me3, histone H3 residues 1–15 with trimethylphosphonium lysine analogue at position 9]",demethylation in combination with KDM4EJmjC,"KDM3AJmjC (T515–S1317); KDM3AJmjC 2.0 µM plus KDM4EJmjC 2.0 µM, peptide 5.0 µM","produced H3KP9me2 (due to KDM4EJmjC catalysis), but did not result in masses consistent with H3KP9me1 or H3KP9"
same,demethylation,"KDM3AJmjC (T515–S1317); KDM3AJmjC 2.0 µM, H3KP9me2 prepared in situ with KDM4EJmjC",do not catalyse demethylation of H3K9me3 (as anticipated) or H3KP9me3
same,demethylation,KDM4AJmjC (M1–L359),substantial turnover to H3KP9me2
